Measurements taken from the NIST ThermoML archive (doi:10.1016/j.fluid.2007.08.010).

Conditions: Liquid, Falling or rolling sphere viscometry

c1ccccc1 [benzene]
viscosity [mPa·s]
Conditions	690 kPa	5000 kPa	10000 kPa	20000 kPa	30000 kPa	40000 kPa	50000 kPa	60000 kPa
313.2 K	0.479	0.5	0.524	0.574	0.625	0.675	0.725	0.774
333.2 K	0.387	0.404	0.424	0.466	0.509	0.553	0.597	0.641
353.2 K	0.317	0.331	0.347	0.38	0.415	0.451	0.489	0.526
373.2 K	0.269	0.279	0.291	0.316	0.344	0.372	0.402	0.434
393.2 K	0.239	0.246	0.255	0.273	0.294	0.315	0.339	0.364

CCCCCCCCCCCCCC [tetradecane]
viscosity [mPa·s]
Conditions	690 kPa	5000 kPa	10000 kPa	20000 kPa	30000 kPa	40000 kPa	50000 kPa	60000 kPa
313.2 K	1.653	1.738	1.831	2.025	2.241	2.483	2.767	3.093
333.2 K	1.218	1.283	1.345	1.473	1.607	1.74	1.886	2.043
353.2 K	0.896	0.957	1.017	1.128	1.229	1.325	1.423	1.518
373.2 K	0.66	0.708	0.757	0.852	0.943	1.031	1.117	1.202
393.2 K	0.527	0.568	0.609	0.687	0.767	0.839	0.908	0.976
